Experimental data taken from patent US10201536B2, “Methods and pharmaceutical compositions for the treatment of bacterial infections in patients suffering from cirrhosis” (INSERM (INSTITUT NATIONAL DE LA SANTE ET DE LA RECHERCHE …, priority 2015, dated 2019).

Legend:
[1] = system: neutrophils from healthy donors; assay: Superoxide production, cytochrome C reduction assay, healthy neutrophils; format: cell-based, human; settings: 2.5 μg/ml 15 min, then 1 μM fMLP
Experimental: (§1) FIG. 4. The TLR7/8 agonist CL097 restored the production of superoxide in neutrophils from patients with advanced alcohol cirrhosis. Neutrophils from healthy donors and patients with advanced alcoholic cirrhosis were treated for 15 min with the TLR7/8 agonist (2.5 μg/ml), then with PBS or 1 μM fMLP. Results represent the mean of superoxide production±SEM expressed in nmole/10^6 cells (n=8, *: P <0.05).
(§2) To determine whether this treatment improves NADPH oxidase activity, superoxyde production (02-°) was measured by the specific cytochrome C reduction assay, after cell stimulation with the bacterial peptide fMLP. […] Promisingly, these CL097 original properties were also observed in a model of ROS production in whole blood from patients (FIG. 5B).

Gp91phox mRNA = Gp91phox mRNA quantification in neutrophils from cirrhotic patients; format: cell-based, human; settings: patient neutrophils, 2.5 μg/ml, 30 min
Experimental: (§3) FIG. 3. The TLR7/8 agonist CL097 stimulated Gp91phox RNA production and synthesis in neutrophils from patients with advanced alcohol cirrhosis. Neutrophils from cirrhotic patients were treated in the absence (buffer) or presence of CL097 (2.5 μg/ml) for 30 min at 37° C. and the amount of Gp91phox mRNA was quantified and expressed as percentage of control (Buffer) (Panel A, n=6, *: P<0.05). The expression of Gp91phox was determined by western-blot assays and expressed as percentage±SEM of that of neutrophils of healthy donors (Panel B, n=4, *: P<0.05).
as §2

[2] = system: neutrophils from patients with advanced alcoholic cirrhosis; assay: Superoxide production, cytochrome C reduction assay, patient neutrophils; format: cell-based, human; settings: 2.5 μg/ml 15 min, then 1 μM fMLP
Experimental: as §1, §2

[3] = system: whole blood from cirrhotic patients; assay: ROS production, luminol chemiluminescence, whole blood from cirrhotic patients; format: cell-based, human
Experimental: (§4) FIG. 5. The TLR7/8 agonist CL097 restored the production of reactive oxygen species by purified neutrophils and in whole blood from patients. ROS production was measured by the highly sensitive luminol-enhanced chemiluminescence assay with purified neutrophils (0.5×10^6 cells/450μl Hanks Balanced salt solution, Panel A) and with whole blood (20 μl in 450 μl PBS containing 0.120 mM calcium, Panel B) from patients with advanced alcohol cirrhosis. Cells were treated for 15 min with the TLR7/8 agonist […], then with 1 μM fMLP (Panel A). Results represent the peak of chemiluminescence response expressed in cpm (mean±SEM of 8 experiments).
(§5) FIG. 6. […] Whole blood (20 μl) from healthy donors (Panel A) and cirrhotic patients (Panel B) were treated in 450 μL PBS containing 0.120 mM calcium), in the absence (control) and presence of R848 or CL097 (0.25-5 μg/ml) for 15 min. Cells were then stimulated with 1 μM fMLP. Results represent the peak of chemiluminescence response induced by fMLP and are expressed in cpm (mean±SEM of 4-6, *: P<0.05).
as §2

E coli [4] = assay: Bactericidal activity of neutrophils from cirrhotic patients against E coli; format: cell-based, human
Experimental: (§6) FIG. 7. Impaired bactericidal activity of neutrophils from cirrhotic patients and beneficial effects of the TLR7/8 agonist CL097. (A) Neutrophils from healthy volunteers (Control) and cirrhotic patients were incubated with E coli for 5 min, then treated or not (Buffer) with fMLP (1 μM) for 25 min. (B, C): Neutrophils incubated with bacteria were treated without (PBS) and with CL097 (1 μg/ml) for 2 min before stimulation with fMLP for 23 min. Cells were lysed and the number of bacterial colony was determined and expressed as percentage of that of control resting cells (A, n=6), or % of that of resting cells (PBS) in both cell populations (B, C, n=6); *P<0.05 (Data published in Boussif A et al, J Hepatol. 2016 64:1041-8. doi: 10.1016/j.jhep.2015.12.005. Epub 2015 Dec. 21).
(§7) Thus, TLR7/8 activation may provide beneficial effects on neutrophil host-defense activities in patients with cirrhosis.

Gp91phox [5] = assay: Gp91phox expression by western-blot in neutrophils from cirrhotic patients; format: cell-based, human; settings: patient neutrophils, 2.5 μg/ml, 30 min
Experimental: as §3, §2

[6] = system: purified neutrophils from patients with advanced alcohol cirrhosis; assay: ROS production, luminol-enhanced chemiluminescence, purified patient neutrophils; format: cell-based, human
Experimental: as §4, §2

E coli [7] = assay: Bactericidal activity of neutrophils from healthy volunteers against E coli; format: cell-based, human
Experimental: as §6, §7

cirrhotic BDL rats = assay: In vivo treatment of cirrhotic bile duct ligated (BDL) rats, ROS production in whole blood; set-up: species or system Wistar female rats; settings: 2.2 mg/kg at day 21, parenteral administration, fMLP 1 μM ex vivo
Experimental: FIG. 11. In vivo treatment of cirrhotic rats by R848 reverses the deficient ROS production in whole blood. The common bile duct with Wistar female rats was ligated (BDL) under general anesthesia (10 mg Avertin, IP) close to the liver hilum immediately below the bifurcation as described previously (Mohammadi et al, Liver Int. 2009, 29(5):692-700). All surgical procedures were performed under sterile conditions. Blood was collected in Eppendorf tubes (approximately 0.5 ml in 10 mM EDTA) with a 1 inch hypodermic needle inserted into the vessel in the mid ventral surface of the tail. White blood cells were counted using a MS9-5V Analyser Counter (Melet Schloesing Laboratories). At day 21, the cirrhotic BDL rats were treated with R848 (2.2 mg/kg) as reported (McCluskie M J et al, Antiviral Res. 69:77-85, 2006). Control rats were not treated. The production of reactive oxygen species were measured in whole blood at the indicated day. Briefly, ROS production was continueously recorded in a thermostated bioluminometer (Berthold LB940) using 3 blood volumes (0.9, 1.8 and 3.75 μl) incubated at 37° C. in 0.5 ml Hanks balanced salt solution (HBSS) containing 10 μM luminol. Cells were treated with cytochalasin b (0.25 μg/ml) for 5-10 min then stimulated with the bacterial-derived peptide fMet-Leu-he (fMLP, 1 μM). ROS production represents the peak of chemiluminescence response in whole blood. […]

[8] = system: whole blood from healthy donors; assay: ROS production, luminol chemiluminescence, whole blood from healthy donors; format: cell-based, human; settings: 0.25-5 μg/ml 15 min, then 1 μM fMLP
Experimental: as §5, §2

Gp91phox [9] = assay: gp91phox degradation in healthy PMN treated with purified elastase, western-blot; format: cell-based, human; settings: 1 H at 37° C., 0.1 and 0.5 unit
Experimental: (§8) FIG. 8. Elastase induces the degradation of gp91phox and p22phox in healthy PMN. (A and B) Western-blot analysis and densitometric quantification of gp91phox and p22phox in healthy PMN treated in the absence or presence of elastase at 0.1 and 0.5 units for 1 hour. (C and D) Western-blot analysis densitometric quantification of gp91phox and […] in healthy PMN treated in the absence or presence of the elastase inhibitor (NEI) at 100 μM for 15 min before stimulation with fMLP (1 μM) for 45 min. (E) Western-blot analysis densitometric quantification of gp91phox in healthy PMN pretreated in the absence or presence of the elastase inhibitor (NEI) at 100 μM for 15 min before incubation for 45 min with a cell-free degranulation supernatant obtained from fMLP (1 μM, 2 min) stimulated PMN. Blots are representative of 4 experiments and densitometric analyses are cumulative and expressed as percentage of the actin level. […] (F) Sensorgrams of the PMN specific binding and dissociation to the anti-gp91phox antibody (7D5) coated to the CM3 sensorchip, analysed with the Biacore X100, as a function of time. […] Data are representative of 3 independent experiments are expressed as resonance unit (RU). (G) Flow cytometry quantification of the Gp91phox expression at the surface of PMN treated or not (Control) with 0.5 unit Elastase at 4° C. […]

Gp91phox [10] = assay: Biacore SPR binding of intact PMN to anti-gp91phox 7D5 antibody; set-up: species or system human; settings: PMN pretreated 1 H at 37° C. (0.5 units) and washed
Experimental: as §8

Gp91phox [11] = assay: Flow cytometry of 7D5 antibody binding to gp91phox at the PMN surface after elastase at 4° C.; format: cell-based, human; settings: PMN treated at 4° C. for 1 H, 0.5 unit
Experimental: as §8

p22phox = p22phox degradation in healthy PMN treated with purified elastase, western-blot; format: cell-based, human; settings: 1 H at 37° C., 0.5 unit
Experimental: as §8

CCOCc1nc2c([nH]1)c(N)nc1ccccc12 [CL097]
optimal production of superoxide [1]: further increased | Gp91phox mRNA level (Gp91phox mRNA): increased | fMLP-induced superoxide production [2]: potentiated fMLP-induced superoxide production to a level similar of that of neutrophils from healthy donors | ROS production in whole blood (stimulation and potentiation properties) ([3]; whole blood from patients): also observed | bacterial killing by agonist alone (E coli [4]; neutrophils from cirrhotic patients, 1 μg/ml): significant bacterial killing | fMLP-induced bacterial killing (E coli [4]; patients' neutrophils, 1 μg/ml 2 min before fMLP 23 min): strongly potentiated | expression of Gp91phox (western-blot) (Gp91phox [5]): restored | fMLP-induced ROS production ([6]; agonist 15 min, then 1 μM fMLP): strongly potentiate | ROS production by agonist by itself ([6]; agonist alone, 15 min): weak production of ROS | fMLP-induced bacterial killing (E coli [7]; control neutrophils, 1 μg/ml 2 min before fMLP 23 min): non significant increase | bacterial killing by agonist alone (E coli [7]; neutrophils from controls, 1 μg/ml): significant bacterial killing

CCOCc1nc2c(N)nc3ccccc3c2n1CC(C)(C)O [R848, 4-amino-2-ethoxymethyl-α,α-dimethyl-1H-imidazol[4,5-c]quinoline-1-ethanol]
ROS production in whole blood of cirrhotic rats (cirrhotic BDL rats): reversed the deficient ROS production | improvement of ROS production, potency compared with CL097 [8]: more potent than CL097 | improvement of ROS production, potency compared with CL097 ([3]; whole blood from cirrhotic patients, 0.25-5 μg/ml 15 min, then 1 μM fMLP): more potent than CL097

elastase: purified elastase, a serine protease produced by neutrophils
gp91phox degradation (Gp91phox [9]): approximately 50% | PMN binding to 7D5 antibody (SPR) (Gp91phox [10]): markedly reduced | 7D5 antibody binding (FACS scan) (Gp91phox [11]): strongly inhibited | p22phox degradation (p22phox): degradation of p22phox was observed
